Measured values published in article PMC7156612, “Olinciguat, an Oral sGC Stimulator, Exhibits Diverse Pharmacology Across Preclinical Models of Cardiovascular, Metabolic, Renal, and Inflammatory Disease” (Frontiers in Pharmacology, 2020).
Values joined by “and” are separate entries in the source; they are usually repeats but may differ in a detail not shown here. Equal entries are not always repeated. Where two headings read alike, the source gives them in different places.

What was measured:
[1] = Pharmacokinetics in Sprague-Dawley rats; assay type: in vivo; details: rat, plasma; for bioavailability / Cmax / Tmax / half-life: po; for bioavailability: 1 mg/kg; for Cmax / Tmax / half-life: p.o. 1 mg/kg
Experimental: Male (n=12, 2 groups of 6) and female (n=12, 2 groups of 6) Sprague-Dawley rats (275–300 g) with indwelling jugular vein cannulae were fasted overnight prior to dosing. Animals were dosed either intravenously (i.v.) via bolus injection through a percutaneous catheter into a lateral tail vein or orally (p.o.) via gavage. Olinciguat was formulated in 60% polyethylene glycol (PEG) 400/40% water at 0.3 mg/ml (0.3 mg/kg) for i.v. dosing, and at 1 mg/ml (1 mg/kg) in 100% PEG 400 for p.o. dosing. Chow was returned to animals 4 h postdose.
Blood from i.v. and p.o. dosed rats was collected at 16 timepoints (2 groups of rats, 8 timepoints per group) over 24 h. Samples were collected into potassium ethylenediamine tetraacetic acid (K2EDTA) tubes, centrifuged (3,500 rpm for 10 min) to yield plasma. In the pharmacokinetic studies and in all in vivo studies, olinciguat plasma concentrations were determined by LC-MS/MS. Pharmacokinetic (PK) parameters were calculated by noncompartmental analysis using sparse sampling in Phoenix® WinNonLin® v.6.3 (Certara, Princeton, NJ).

normotensive Wistar rats = experiment: Arterial hemodynamics by telemetry in normotensive Wistar rats; assay type: in vivo, rat
Experimental: The Dataquest A.R.T.™ acquisition and analysis system (Data Sciences International [DSI], St. Paul, MN) was employed to monitor and analyze hemodynamic data from conscious, freely moving rats surgically implanted with a telemetry pressure transmitter (PA-C40). Telemetry transmitter implantation was performed on rats under sterile conditions. Rats were anesthetized with isoflurane and body temperature was maintained with a heating pad during surgery. A laparotomy was performed to expose the abdominal aorta. The catheter tip of the telemetry transmitter was inserted into the abdominal aorta and secured with a 5-0 silk suture (Ethicon, Inc., Somerville, NJ). The abdominal incision was closed with uninterrupted suture (4-0 silk, Ethicon, Inc., Somerville, NJ) and the telemetry transmitter was placed in the abdominal cavity and secured to the abdominal wall. Approximately 100 µl of 0.25% marcaine was applied directly to the closed abdominal wall, and the skin was then closed with suture (4-0 Vicryl® absorbable, Ethicon, Inc., Somerville, NJ). Buprenorphine (0.05 mg/kg/day, subcutaneous [s.c.]) was administered immediately after the surgery for postoperative pain relief. After recovery from anesthesia, rats were returned to their home cages, placed on DSI receivers, and allowed a 5- to 14-day recovery period. Arterial hemodynamics were measured continuously and recorded throughout the study. For acute studies, analysis was based on hourly averages, for chronic studies, analysis was based on daily or weekly averages.
Spontaneously hypertensive rats (SHRs) (n=6, male, 230–250 g, 14 weeks of age) and Wistar rats (n=6, male, 230–250 g, 12 weeks of age) were implanted with telemetry transmitters as described above. Olinciguat was formulated as a suspension in a vehicle containing 0.5% methylcellulose and 0.2% Tween. Rats were p.o. dosed with a dosing volume of 5 ml/kg. […] Using plasma from tail vein, olinciguat plasma concentrations were determined at 1, 6, and 24 h post-dose on day 4 and reported as the mean from Wistar (n=3) and SHR (n=3). Hemodynamics were recorded hourly during a 24-h baseline period and over the first 3 days of dosing.
Maximum change from baseline of mean arterial pressure (MAP) was calculated using the 24-h pre-first dose average subtracted from the lowest MAP value recorded within 2 h following dosing. The 1-h post-dose change from baseline heart rate (HR) was calculated using the 3-h pre-first dose average subtracted from the 1-h post-dose average.
In the hemodynamic study in Wistar and SHR, hourly MAP data were analyzed using a repeated measures two-way ANOVA, with time and treatment group as independent variables. Significance at each timepoint was determined as compared to the vehicle control using a Dunnett's post-hoc test.

**Q.** For `NC(=O)[C@](O)(CNc1nc(-c2cc(-c3ccon3)n(Cc3ccccc3F)n2)ncc1F)C(F)(F)F` [olinciguat, (R)-3,3,3-trifluoro-2-(((5-fluoro-2-(1-(2-fluorobenzyl)-5-(isoxazol-3-yl)-1H-pyrazol-3-yl)pyrimidin-4-yl)amino)methyl)-2-hydroxypropanamide], which Vd ([1]; both sexes, Sprague-Dawley, intravenous, 0.3 mg/kg, male and female rats, mean, read-out: mean pharmacokinetic volume of distribution) is on record?
**A.** 1 L/kg

**Q.** And the bioavailability ([1]; both sexes, Sprague-Dawley, rats, sexes not separated (discussion), read-out: oral bioavailability (rats, overall))?
**A.** 40%

**Q.** And the clearance ([1]; iv, female Sprague Dawley rats, i.v. 0.3 mg/kg)?
**A.** 5.6 mL/min/kg

**Q.** And the Vd ([1]; iv, female Sprague Dawley rats, i.v. 0.3 mg/kg, read-out: Vss)?
**A.** 0.9 L/kg

**Q.** What about the clearance ([1]; iv, male Sprague Dawley rats, i.v. 0.3 mg/kg) of the same compound?
**A.** 11.3 mL/min/kg

**Q.** What about the Vd ([1]; iv, male Sprague Dawley rats, i.v. 0.3 mg/kg, read-out: Vss) of the same compound?
**A.** 1.1 L/kg

**Q.** And the bioavailability ([1]; female Sprague Dawley rats, read-out: Oral bioavailability)?
**A.** 45%

**Q.** What about the bioavailability ([1]; male Sprague Dawley rats, read-out: Oral bioavailability) of the same compound?
**A.** 36%

**Q.** And the Cmax ([1]; female Sprague Dawley rats)?
**A.** 198 ng/mL

**Q.** And the Tmax ([1]; female Sprague Dawley rats)?
**A.** 3 h

**Q.** What about the half-life ([1]; female Sprague Dawley rats) of the same compound?
**A.** 234 min

**Q.** And the Cmax ([1]; male Sprague Dawley rats)?
**A.** 96.4 ng/mL

**Q.** And the Tmax ([1]; male Sprague Dawley rats)?
**A.** 1 h

**Q.** What about the half-life ([1]; male Sprague Dawley rats) of the same compound?
**A.** 210 min

**Q.** And the “MAP vs vehicle-treated rats” value (normotensive Wistar rats; 1 mg/kg p.o. QD)?
**A.** not significantly different from vehicle at any time

**Q.** What about the “MAP vs vehicle-treated rats” value (normotensive Wistar rats; 3 mg/kg p.o. QD) of the same compound?
**A.** lower only on the second and third day of dosing

**Q.** And the “MAP vs vehicle-treated rats” value (normotensive Wistar rats; 10 mg/kg p.o. QD)?
**A.** lower on all 3 days of dosing

**Q.** And the “maximum absolute change in MAP” value (normotensive Wistar rats; 10 mg/kg p.o. QD, day 3, 10 mg/kg)?
**A.** −11 ± 3 mmHg and −11^b mmHg
